Assay results reported in patent publication US8703172B2, “Sphingolipids for improvement of the composition of the intestinal flora” (Nederlandse Organizatie voor …, priority 2003, dated 2014).
Values after ≈ are worked out from the molar mass of the structure shown. “Also recorded” adds a separate entry of the source. Like-named read-outs stand apart in the source and are kept apart here.

Tests used:
[1] = test system: Bifidobacterium adolescentis; test: MIC on agar plates (RCBA); assay type: cell-based; details: RCBA agar plate, anaerobic, 72 hours at 30° C.; for MIC: Bifidobacterium adolescentis, read-out: MIC, B. adolescentis
Lactobacillus sake = test: MIC on agar plates (MRSA); details: for MIC, L. sake: anaerobic, 72 hours at 30° C.; for MIC: Latilactobacillus sakei, 72 h, read-out: MIC, L. sake
Leuconostoc carnosum = test: MIC on agar plates (MRSA); details: for MIC, L. carnosum: agar plate, anaerobic, 72 hours at 30° C.; for MIC: 72 h, read-out: MIC, L. carnosum
[2] = test system: Lactobacillus acidophilus; test: MIC on agar plates (MRSA); details: for MIC, L. acidophilus: anaerobic, 72 hours at 30° C.; for MIC: Lactobacillus acidophilus, 72 h, read-out: MIC, L. acidophilus
Bacillus cereus = test: MIC on agar plates (TSA); details: for MIC, B. cereus: TSA agar plate, aerobic, 48 hours at 30° C.; for MIC: Bacillus cereus, 48 h, read-out: MIC, B. cereus
Pseudomonas aeruginosa = test: MIC on agar plates (TSA); assay type: cell-based; details: TSA agar plate, aerobic, 48 hours at 30° C.; for MIC: Pseudomonas aeruginosa, read-out: MIC, P. aeruginosa
[3] = test system: Streptococcus suis type 2; test: MIC on agar plates (TSA); details: for MIC, S. suis type 2: TSA agar plate, aerobic, 48 hours at 30° C.; for MIC: Streptococcus suis, TYPE2, 48 h, read-out: MIC, S. suis type 2
Listeria monocytogenes = test: MIC on agar plates (TSA); details: for MIC, L. monocytogenes: TSA agar plate, aerobic, 48 hours at 30° C.; for MIC: Listeria monocytogenes, 48 h, read-out: MIC, L. monocytogenes
Bacteroides fragilis = test: MIC on agar plates (RCBA); assay type: cell-based; details: RCBA agar plate, anaerobic, 72 hours at 30° C.; for MIC: Bacteroides fragilis, read-out: MIC, B. fragilis
Salmonella enteritidis = test: MIC on agar plates (TSA); assay type: cell-based; details: TSA agar plate, aerobic, 48 hours at 30° C.; for MIC: Salmonella enterica, ENTERITIDIS, read-out: MIC, S. enteritidis
Lactobacillus casei = test: MIC on agar plates (MRSA); details: for MIC, L. casei: MRSA agar plate, anaerobic, 72 hours at 30° C.; for MIC: Lacticaseibacillus casei, 72 h, read-out: MIC, L. casei
Fusobacterium nucleatum = test: MIC on agar plates (RCBA); assay type: cell-based; details: for MIC: Fusobacterium nucleatum, read-out: MIC, F. nucleatum
bacteria tested = test: Antimicrobial activity on agar plates, summary for the bacteria tested; assay type: cell-based
Clostridium spp. = test: MIC on agar plates (RCBA); assay type: cell-based; details: for MIC: Clostridium, 72 h, read-out: MIC, C. spp.
Bifidobacterium spp. = test: MIC on agar plates (RCBA); assay type: cell-based; details: RCBA agar plate, anaerobic, 72 hours at 30° C.; for MIC: Bifidobacterium, read-out: MIC, Bif. spp.
Enterococcus hirae = test: MIC on agar plates (MRSA); details: for MIC, E. hirae: MRSA agar plate, anaerobic, 72 hours at 30° C.; for MIC: Enterococcus hirae, 72 h, read-out: MIC, E. hirae
Gram-positive bacteria = test: Antimicrobial activity on agar plates, summary for Gram-positive bacteria; assay type: cell-based
[4] = assay type: in vitro ADME
Description: (§1) Because the sphingolipids need to be transported together with the food to the small and large intestines to be able to be active there, the transport of phytosphingosine and sphinganine in the stomach and small intestine model TIM-1 was tested. Also, the transport of phytosphingosine in a fistulated pig was tested after the animal had been fed with feed containing phytosphingosine (1 wt. %). In a fistulated pig, the small intestine is uncoupled from the large intestine so that the digested feed at the end of the small intestine can be collected.
To investigate whether sphingolipids from the food are transported through the small intestine without being absorbed or being chemically or enzymatically modified in the small intestine, phytosphingosine and sphinganine were mixed in a standard Tim-1 food and exposed to a TIM-1 treatment. Of each sphingolipid, 5 mg per 100 grams of food (0.005 wt. %) in the food were tested. After starting the TIM-1 digestion processes in the TIM-1 stomach, at the fixed times, lumen samples of 100 grams were taken. Also, dialysate samples were taken from the material which was transported through the semi-permeable TIM-1 membrane. The dialysate samples varied between 1428 and 1122 grams. […] Next to the samples, the exposure time in minutes is given.

Clostridium difficile [5] = test: Survival in liquid ileum medium; assay type: cell-based; details: within 200 minutes
Clostridium difficile [6] = test: Antimicrobial activity in small intestine model TIM-1; assay type: cell-based; details: 20 μg/ml of sphingolipid; lumen samples plated on Clostridium difficile agar
[7] = test system: Lactobacillus acidophilus; test: Survival in liquid ileum medium; details: within 200 minutes
Clostridium difficile [8] = test: MIC on agar plates (RCBA); assay type: cell-based; details: Clostridioides difficile; RCBA agar plate, anaerobic, 72 hours at 30° C.
[9] = test system: Lactobacillus acidophilus; test: Antimicrobial activity in small intestine model TIM-1; assay type: cell-based; details: 20 μg/ml of sphingolipid; lumen samples plated on Rogosa agar
Clostridium perfringens = test: microbe, parasite or virus in culture; assay type: cell-based; details: 72 h, read-out: MIC, C. perfringens
[10] = pig, in vivo
Description: as §1
To investigate in an in vivo system whether sphingolipids from the food do actually arrive in the large intestine and are not prematurely absorbed or metabolized, pig basic feed to which phytosphingosine (1 wt. %) was added was fed to a fistulated pig.
The feed was prepared by mixing a solution of phytosphingosine in ethanol with the feed and drying it in vacuo. Every hour, the intestinal content (chymus) at the end of the small intestine was separately collected and frozen dry. The dry intestinal contents were then extracted with chloroform/methanol (2:1, v/v). The extracts were then filtered over glass wool and evaporated under a nitrogen flow. The residues were examined for the presence of phytosphingosine, sphingosine, sphinganine and sphingomyelin by means of LC-MS.

[11] = RCBA agar plate, anaerobic, 72 hours at 30° C.
[12] = 60 min, 5 mg per 100 grams of food
[13] = 120 min, 5 mg per 100 grams of food
[14] = 180 min, 5 mg per 100 grams of food
[15] = 240 min, 5 mg per 100 grams of food
[16] = ileum medium, absence of bile, 10 and 50 μg/ml

In the case of glucosylceramide III, the “MIC, B. adolescentis” value [1] is reported as >365 µg/mL, the “MIC, L. sake” value (Lactobacillus sake) is reported as >365 µg/mL and the “MIC, L. carnosum” value (Leuconostoc carnosum) is reported as >365 µg/mL. For the same compound, the “MIC, L. acidophilus” value [2] was >365 µg/mL, the “MIC, B. cereus” value (Bacillus cereus) was >365 µg/mL and the “MIC, P. aeruginosa” value (Pseudomonas aeruginosa) was >365 µg/mL. For the same compound, the “MIC, S. suis type 2” value [3] was >365 µg/mL, the “MIC, L. monocytogenes” value (Listeria monocytogenes) was >365 µg/mL and the “MIC, B. fragilis” value (Bacteroides fragilis) was >365 µg/mL. The “MIC, S. enteritidis” value (Salmonella enteritidis) was >365 µg/mL, the “MIC, L. casei” value (Lactobacillus casei) was >365 µg/mL and the “MIC, F. nucleatum” value (Fusobacterium nucleatum; [11]) was >365 µg/mL. The “Inhibition of the bacteria tested” value (bacteria tested) was “do not inhibit any of the bacteria tested”, the “MIC, C. spp.” value (Clostridium spp.) was >365 µg/mL and the “MIC, Bif. spp.” value (Bifidobacterium spp.) was >365 µg/mL. The “MIC, E. hirae” value (Enterococcus hirae) was >365 µg/mL.

For CCCCCCCCCCCCC/C=C/[C@@H](O)[C@@H](N)COP(=O)([O-])OCC[N+](C)(C)C [Lysosphingomyelin, lysosphingomyelin], the “MIC, B. adolescentis” value [1] was <3.1 µg/mL, the “MIC, L. sake” value (Lactobacillus sake) was 20 µg/mL (≈ 43 µM) and the “MIC, L. carnosum” value (Leuconostoc carnosum) was <3.1 µg/mL. For the same compound, the “MIC, L. acidophilus” value [2] was 16.6 µg/mL (≈ 35.7 µM), the “MIC, B. cereus” value (Bacillus cereus) was <3.1 µg/mL and the “MIC, P. aeruginosa” value (Pseudomonas aeruginosa) was >365 µg/mL. For the same compound, the “MIC, S. suis type 2” value [3] was <3.1 µg/mL, the “MIC, L. monocytogenes” value (Listeria monocytogenes) was <3.1 µg/mL and the “MIC, B. fragilis” value (Bacteroides fragilis) was 11.4 µg/mL (≈ 24.5 µM). The “Antimicrobial activity against Gram-positive bacteria” value (Gram-positive bacteria; agar plates) was “killed; also recorded: strong antimicrobial activity”, the “MIC, S. enteritidis” value (Salmonella enteritidis) was >365 µg/mL and the “MIC, L. casei” value (Lactobacillus casei) was >365 µg/mL. The “MIC, F. nucleatum” value (Fusobacterium nucleatum; [11]) was >365 µg/mL, the “MIC, C. spp.” value (Clostridium spp.; [11]) was <3.1 µg/mL and the “MIC, Bif. spp.” value (Bifidobacterium spp.) was 10 µg/mL (≈ 21.5 µM). The “MIC, E. hirae” value (Enterococcus hirae) was >365 µg/mL.

For CC(=O)O.CCCCCCCCCCCCCCC[C@@H](O)[C@@H](N)CO [Sphinganine, sphinganine acetate], the MIC [1] was > 73 µg/mL, the MIC (Lactobacillus sake) was > 70 µg/mL and the MIC (Leuconostoc carnosum) was < 0.3 µg/mL. For the same compound, the MIC [2] was 222 µg/mL, the “Transport through the TIM-1 system” value [4] was “transported to the large intestine to a sufficient extent” and the “Concentration in TIM-1 sample: Dialysate ileum 0-120′” value ([4]; 5 mg per 100 grams of food) was 0 ng/mL. For the same compound, the “Concentration in TIM-1 sample: Dialysate ileum 120-240′” value ([4]; 5 mg per 100 grams of food) was 0 ng/mL, the “Concentration in TIM-1 sample: Dialysate jejunum 0-120′” value ([4]; 5 mg per 100 grams of food) was 0 ng/mL and the “Concentration in TIM-1 sample: Dialysate jejunum 120-240′” value ([4]; 5 mg per 100 grams of food) was 0 ng/mL. For the same compound, the “Concentration in TIM-1 sample: Food” value ([4]; 5 mg per 100 grams of food) was 19360 ng/mL, the “Concentration in TIM-1 sample: Residue jejunum/ileum + dialysis fluid” value ([4]; 5 mg per 100 grams of food) was 8620 ng/mL and the “Concentration in TIM-1 sample: Residue stomach/duodenum + dialysis fluid” value ([4]; 5 mg per 100 grams of food) was 2730 ng/mL. For the same compound, the “Share of the amount used found in the samples (rough mass balance)” value ([4]; 5 mg per 100 grams of food) was “approx. 20%”, the “Concentration in TIM-1 sample: Lumen ileum 60′” value [4, 12] was 740 ng/mL and the “Concentration in TIM-1 sample: Lumen jejunum 60′” value [4, 12] was 8750 ng/mL. For the same compound, the “Concentration in TIM-1 sample: Lumen ileum 120′” value [4, 13] was 4520 ng/mL, the “Concentration in TIM-1 sample: Lumen jejunum 120′” value [4, 13] was 11510 ng/mL and the “Concentration in TIM-1 sample: Lumen ileum 180′” value [4, 14] was 5300 ng/mL. For the same compound, the “Concentration in TIM-1 sample: Lumen jejunum 180′” value [4, 14] was 12470 ng/mL, the “Concentration in TIM-1 sample: Lumen ileum 240′” value [4, 15] was 7910 ng/mL and the “Concentration in TIM-1 sample: Lumen jejunum 240′” value [4, 15] was 10460 ng/mL. The MIC (Bacillus cereus) was < 6.3 µg/mL, the MIC (Pseudomonas aeruginosa) was > 731 µg/mL and the MIC [3] was < 6.3 µg/mL. The “Killing of Clostridium difficile” value (Clostridium difficile [5]; [16]) was “virtually completely killed”, the “Killing of Clostridium difficile” value (Clostridium difficile [5]; liquid cultures, 50 ppm) was “for the larger part killed” and the MIC (Listeria monocytogenes) was < 6.3 µg/mL. The MIC (Bacteroides fragilis) was 0.3 µg/mL, the “Antimicrobial activity against Gram-positive bacteria” value (Gram-positive bacteria; agar plates, acetate) was “killed; also recorded: strong antimicrobial activity” and the MIC (Salmonella enteritidis) was > 731 µg/mL. For the same compound, the “Antimicrobial activity against Clostridium difficile in TIM-1” value (Clostridium difficile [6]) was “no demonstrable antimicrobial activity”, the “Killing of Lactobacillus acidophilus” value [7, 16] was “virtually completely killed” and the “Killing of Lactobacillus acidophilus” value ([7]; liquid cultures, 50 ppm) was “for the larger part killed”. For the same compound, the MIC (Lactobacillus casei) was 246 µg/mL, the MIC (Clostridium difficile [8]) was > 73 µg/mL and the MIC (Fusobacterium nucleatum; 72 h) was > 731 µg/mL. For the same compound, the “Antimicrobial activity against Lactobacillus acidophilus in TIM-1” value [9] was “no demonstrable antimicrobial activity”, the MIC (Clostridium perfringens) was > 36.5 µg/mL and the “Presence in the intestinal contents at the end of the small intestine” value [10] was “small amounts”. The MIC (Clostridium spp.) was > 73 µg/mL, the MIC (Bifidobacterium spp.) was 0.9 µg/mL and the MIC (Enterococcus hirae) was > 731 µg/mL.

With CCCCCCCCCCCCC/C=C/[C@@H](O)[C@@H](N)CO [Sphingosine, sphingosine] the MIC [1] was < 6.3 µg/mL, the MIC (Lactobacillus sake) was < 6.3 µg/mL and the MIC (Leuconostoc carnosum) was < 6.3 µg/mL. For the same compound, the MIC [2] was < 6.3 µg/mL, the MIC (Bacillus cereus) was < 6.3 µg/mL and the MIC (Pseudomonas aeruginosa) was > 731 µg/mL. The MIC [3] was < 6.3 µg/mL, the MIC (Listeria monocytogenes) was < 6.3 µg/mL and the MIC (Bacteroides fragilis) was < 6.3 µg/mL. For the same compound, the “Antimicrobial activity against Gram-positive bacteria” value (Gram-positive bacteria) was “killed; also recorded: strong antimicrobial activity”, the MIC (Salmonella enteritidis) was > 731 µg/mL and the MIC (Lactobacillus casei) was < 6.3 µg/mL. For the same compound, the MIC (Fusobacterium nucleatum; [11]) was < 6.3 µg/mL, the “Presence in the intestinal contents at the end of the small intestine” value [10] was “No sphingosine could be demonstrated” and the MIC (Clostridium spp.) was < 6.3 µg/mL. For the same compound, the MIC (Bifidobacterium spp.) was < 6.3 µg/mL and the MIC (Enterococcus hirae) was 84 µg/mL (≈ 280 µM).
